Results: ChEMBL document CHEMBL1128871, “Synthesis and in vitro cytotoxicity of ()-acetomycin and related analogs” (Bioorg Med Chem Lett, 1995)

Experiments:
[1] = Half-life period was determined in mouse blood; format: ADME, organism-based
B16 = assay: Tested for cytotoxic activity against B16 mouse melanoma cells in MTT assay; format: functional, cell-based
DA-3 cell line = assay: Tested for cytotoxic activity against DA-3 mouse mammary adenocarcinoma cells in MTT assay; format: functional, cell-based
HT-29 = assay: Tested for cytotoxic activity against HT-29 human colon adenocarcinoma cells in MTT assay; format: functional, cell-based
MCF7 [2] = assay: Tested for cytotoxic activity against MCF7-WT human breast adenocarcinoma cells in MTT assay; format: functional, cell-based
MCF7 [3] = assay: Tested for cytotoxic activity against MCF7-WT human breast adenocarcinoma cells in MTT assay.; format: functional, cell-based

half-life [1] | Compound | IC50 (B16) | IC50 (DA-3 cell line) | IC50 (HT-29) | IC50 (MCF7 [2]) | IC50 (MCF7 [3])
< 5 min | CC(=O)[C@@]1(C)C(=O)O[C@@H](OC(=O)c2ccccc2)[C@H]1C | 1 µM | 1 µM | 1 µM | 3 µM | 
 | CC(=O)O[C@@H]1OC(=O)[C@](Br)(C(C)=O)[C@@H]1C | 9 µM | 6 µM | 12 µM | 17 µM | 
 | CC(=O)O[C@@H]1OC(=O)[C@@](Cc2ccccc2)(C(C)=O)[C@@H]1C | 45 µM | 44 µM | 39 µM | 51 µM | 
 | CC(=O)CC[C@]1(C(C)=O)C(=O)O[C@@H](OC(C)=O)[C@H]1C | 7 µM | 8 µM | 7 µM | 6 µM | 
 | CC(=O)O[C@@H]1OC(=O)[C@](O)(C(C)=O)[C@@H]1C | > 50 µM | > 50 µM | > 50 µM | > 50 µM | 
 | CC(=O)O[C@@H]1OC(=O)[C@@](C)(C(=O)c2ccccc2)[C@@H]1C | 7 µM | 15 µM | 7 µM |  | 15 µM
 | CC(=O)O[C@@H]1OC(=O)[C@@](O)(C(C)=O)[C@@H]1C | > 50 µM | > 50 µM | > 50 µM | > 50 µM | 
< 5 min | CC(=O)[C@@]1(C)C(=O)O[C@@H](OC(=O)C(C)(C)C)[C@H]1C | 2 µM | 1 µM | 2 µM | 3 µM | 
 | CC(=O)O[C@@H]1OC(=O)[C@](Cc2ccccc2)(C(C)=O)[C@@H]1C | 41 µM | 45 µM | 40 µM |  | 48 µM
 | CC(=O)O[C@@H]1OC(=O)[C@](OC(=O)c2ccccc2)(C(C)=O)[C@@H]1C | 6 µM | 3 µM | 8 µM | 22 µM | 
 | CC(=O)O[C@@H]1OC(=O)[C@](C)(C(C)=O)[C@@H]1C(C)C | > 50 µM | > 50 µM | > 50 µM | > 50 µM | 
 | CC(=O)O[C@@H]1OC(=O)[C@@](C)(C(C)=O)[C@@H]1C(C)C | > 50 µM | > 50 µM | > 50 µM | > 50 µM | 
< 5 min | CC(=O)O[C@@H]1OC(=O)[C@](C)(C(C)=O)[C@@H]1C | 4 µM | 7 µM | 5 µM | 6 µM | 
 | CC(=O)O[C@@H]1OC(=O)[C@@](C(C)=O)(C2SCCCS2)[C@@H]1C | > 50 µM | > 50 µM | > 50 µM | > 50 µM | 
 | CC(=O)O[C@@H]1OC(=O)[C@@](C)(C(C)=O)[C@@H]1C | 14 µM | 9 µM | 12 µM | > 10 µM | 
 | CC(=O)O[C@@H]1OC(=O)[C@@](OC(C)=O)(C(C)=O)[C@@H]1C | > 50 µM | > 50 µM | > 50 µM | > 50 µM | 
 | CC(=O)O[C@@H]1OC(=O)[C@](C)(C(=O)CBr)[C@@H]1C | 6 µM | 4 µM | 6 µM | 4 µM | 
 | CC(=O)O[C@@H]1OC(=O)[C@](OC(C)=O)(C(C)=O)[C@@H]1C | > 50 µM | > 50 µM | > 50 µM | > 50 µM | 
 | CCO[C@@H]1OC(=O)[C@](C)(C(C)=O)[C@@H]1C | > 50 µM | > 50 µM | > 50 µM | > 50 µM | 
 | CC(=O)O[C@@H]1OC(=O)[C@@H](C(C)=O)[C@@H]1C | > 50 µM | > 50 µM | > 50 µM | > 50 µM | 
 | CCO[C@@H]1OC(=O)[C@@](C)(C(C)=O)[C@@H]1C | > 50 µM | > 50 µM | > 50 µM | > 50 µM | 
 | CC(=O)[C@]1(C)C(=O)O[C@@H](OC(=O)c2ccccc2)[C@H]1C | 5 µM | 2 µM | 6 µM | 8 µM | 
 | CC(=O)[C@]1(C)C(=O)O[C@@H](OC(=O)C(C)(C)C)[C@H]1C | 10 µM | 4 µM | 9 µM | 7 µM | 
